The test system of test [1] is Dex-treated C2C12 myotubes. Put plainly: Dex-induced myotube atrophy, myosin heavy chain immunostaining, myotube diameter. The settings on record: 10 μM Dex 24 h; for diameter of muscle fibers (C2C12 myotubes): zileuton 10 µM, wedelolactone 20 μM (FIGS. 2, 3). In kind it is cell-based, mouse. As to the method: (§1) C2C12 murine skeletal muscle myoblasts were obtained from Koram Biotech (Republic of Korea). The cells were maintained in DMEM growth medium supplemented with 10% FBS, 1% penicillin, and streptomycin. When myoblasts proliferated to approximately 90%, they were differentiated into muscle fibers by treating them with DMEM differentiation medium supplemented with 2% HS, 1% penicillin, and streptomycin for 96 hours. Differentiated muscle fibers were treated with 10 μM Dex for 24 hours to induce sarcopenia. To evaluate the degree of differentiation of muscle cells, differentiating myoblasts were treated with the corresponding compound in differentiation medium for 24 or 48 hours.
Muscle fibers were stained using immunochemical staining using myosin heavy chain antibody. Specifically, the muscle fibers were rinsed three times with PBS and then fixed with a 3.7% formaldehyde solution. After rinsing with PBS, a transparency process was performed with 0.2% TritonX-100 solution, and additional rinsing was performed with PBS. They were blocked with 1% bovine serum albumin solution (1% BSA in PBS-T) and incubated with primary antibody overnight at 4° C. After washing with PBS, the secondary antibody was treated for 1 hour. Afterwards, the myotubes were counterstained with 1 μM DAPI in PBS. Fluorescence images of stained myotubes in five different areas were obtained using a DMI 3000 B microscope (Leica, Germany) and analyzed using ImageJ 1.52 software (National Institutes of Health, Bethesda, MD, USA). Myotubes were classified as myosin heavy chain positive cells containing four or more nuclei, and the diameter of muscle fibers containing four or more nuclei was measured.

Another test has as its system Atrogin-1 and MuRF-1. Put plainly: qPCR of muscle atrophy regulators in Dex-treated C2C12 myotubes. In kind it is cell-based, mouse. As to the method:
as §1
For quantitative real-time PCR, transcript levels of genes of interest were analyzed using the StepOnePlus real-time PCR system (Applied Biosystems, UK). Total RNA was reverse transcribed to prepare cDNA using AccuPower® RT PreMix (Bioneer Corporation). The obtained cDNA was subjected to real-time PCR according to the manufacturer's instructions with the following changes. PCR was performed in triplicate in a total volume of 20 μL 2× Power SYBR Green PCR Master Mix (Enzynomics, Republic of Korea) containing 200 nM (final concentration) of each specific primer and 1 μL of cDNA synthesized from 1 μg of total RNA. PCR amplification consisted of incubating the mixture at 95° C. for 10 minutes, followed by 40 cycles of denaturation, annealing, and extension. Denaturation was performed at 95° C. for 15 s, annealing was performed at 60° C. for 1 min, and extension was performed at 72° C. for 20 s with fluorescence detection at 72° C. after each cycle. After the final cycle, melting point analysis of all samples was performed within the range of 60 to 95° C. using continuous fluorescence detection. Specific cDNA samples were included in each run and used as reference material for comparison between runs. The expression level of GAPDH was used to calculate and normalize the expression levels of all other genes. Results were expressed as relative expression levels for each gene. The synthesized cDNA was amplified by quantitative real-time PCR (qRT-PCR) or standard PCR.

Consider `CCCCC/C=C\C[C@@H](O)/C=C/C=C/C=C\[C@@H](O)CCCC(=O)O` [LTB4, Leukotriene B4], for which, in test [1] (C2C12 myotubes), the “myotube atrophy in Dex-treated myotubes” value is “did not affect”. In addition, the “Atrogin-1 expression (mRNA, qPCR)” value with Atrogin-1 and MuRF-1 is listed as “did not affect”.

Turning to `COc1cc(O)c2c(c1)oc(=O)c1c3cc(O)c(O)cc3oc21` [wedelolactone, Wedelolactone], the “diameter of muscle fibers (C2C12 myotubes)” value in test [1] is listed as “recovered”. Moreover, in the test on Atrogin-1 and MuRF-1, the “Atrogin-1 expression (mRNA, qPCR)” value was “decreased” and the “MuRF-1 expression (mRNA, qPCR)” value was “decreased”.

Regarding `CC(c1cc2ccccc2s1)N(O)C(N)=O` (centres unmarked) [zileuton, Zileuton], the “diameter of muscle fibers (C2C12 myotubes)” value in test [1] is “recovered”. For the same compound, in the test on Atrogin-1 and MuRF-1, the “Atrogin-1 expression (mRNA, qPCR)” value is recorded as “decreased” and the “MuRF-1 expression (mRNA, qPCR)” value is on record as “decreased”.

Values taken from patent US20250332143A1, “COMPOSITION COMPRISING ALOX5 INHIBITOR FOR PREVENTING OR TREATING SARCOPENIA” (PLUTO Inc., priority 2022, published 2025).
